Source: patent US6737383B1, “Herbicidal oxadiazolidines” (priority 1999, dated 2004)

Assays:
Details in all cases: Preemergence
rape = assay: Test B pre/postemergence rape; type: in vivo, Brassica napus
Outline: (§1)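 Response is a visual 0-to-10 score relative to untreated plants, where 0 means no effect and 10 means complete control, taken twelve to sixteen days after application. Treatments went onto soil at planting and onto foliage of 1- to 4-leaf plants, using a surfactant-containing non-phytotoxic solvent.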

sugar beet = assay: Test B pre/postemergence sugar beet; type: in vivo, Beta vulgaris
Outline: as §1

surinam grass = assay: Test B pre/postemergence surinam grass; type: in vivo, Brachiaria decumbens
Outline: as §1

crabgrass = assay: Test B pre/postemergence crabgrass; type: in vivo, Digitaria sanguinalis
Outline: as §1

purple nutsedge = assay: Test B pre/postemergence purple nutsedge; type: in vivo, Cyperus rotundus
Outline: as §1

bedstraw = assay: Test B pre/postemergence bedstraw; type: in vivo, Galium aparine
Outline: as §1

wild oat = assay: Test B pre/postemergence wild oat; type: in vivo, Avena fatua
Outline: as §1

corn = assay: Test B pre/postemergence corn; type: in vivo, Zea mays
Outline: as §1

morningglory = assay: Test B pre/postemergence morningglory; type: in vivo, Ipomoea hederacea
Outline: as §1

giant foxtail = assay: Test B pre/postemergence giant foxtail; type: in vivo, Setaria faberii
Outline: as §1

pigweed = assay: Test B pre/postemergence pigweed; type: in vivo, Amaranthus retroflexus
Outline: as §1

soybean = assay: Test B pre/postemergence soybean; type: in vivo, Glycine max
Outline: as §1

blackgrass = assay: Test B pre/postemergence blackgrass; type: in vivo, Alopecurus myosuroides
Outline: as §1

wheat = assay: Test B pre/postemergence wheat; type: in vivo, Triticum aestivum
Outline: as §1

cocklebur = assay: Test B pre/postemergence cocklebur; type: in vivo, Xanthium strumarium
Outline: as §1

velvetleaf = assay: Test B pre/postemergence velvetleaf; type: in vivo, Abutilon theophrasti
Outline: as §1

[1] = Rate 62 g/ha, scale of 0 to 10 where 0 is no effect and 10 is complete control
[2] = Rate 250 g/ha, scale 0 (no effect) to 10 (complete control)
[3] = Rate 500 g/ha, scale 0 to 10 (0 no effect, 10 complete control)
[4] = Rate 125 g/ha, scale of 0 to 10 where 0 is no effect and 10 is complete control

SMILES: CC(C)N(C(=O)n1oc(=O)n(C(C)C2CCC2)c1=O)c1ccccc1 (centres unmarked) [Compound 717]
- Rape plant response rating (rape; [1]): 0
- Rape plant response rating (rape; [2]): 0
- Rape plant response rating (rape; [3]): 4
- Sugarbeets plant response rating (sugar beet; [1]): 0
- Sugarbeets plant response rating (sugar beet; [2]): 2
- Sugarbeets plant response rating (sugar beet; [3]): 3
- B. signalgrass plant response rating (surinam grass; [1]): 4
- B. signalgrass plant response rating (surinam grass; [2]): 7
- B. signalgrass plant response rating (surinam grass; [3]): 7
- Crabgrass plant response rating (crabgrass; [1]): 10
- Crabgrass plant response rating (crabgrass; [2]): 10
- Crabgrass plant response rating (crabgrass; [3]): 10
- Nutsedge plant response rating (purple nutsedge; [1]): 0
- Nutsedge plant response rating (purple nutsedge; [2]): 0
- Nutsedge plant response rating (purple nutsedge; [3]): 0
- Bedstraw plant response rating (bedstraw; [1]): 0
- Bedstraw plant response rating (bedstraw; [2]): 0
- Bedstraw plant response rating (bedstraw; [3]): 0
- Wild oats plant response rating (wild oat; [1]): 9
- Wild oats plant response rating (wild oat; [2]): 9
- Wild oats plant response rating (wild oat; [3]): 10
- Corn plant response rating (corn; [1]): 0
- Corn plant response rating (corn; [2]): 3
- Corn plant response rating (corn; [3]): 9
- Morningglory plant response rating (morningglory; [1]): 0
- Morningglory plant response rating (morningglory; [2]): 0
- Morningglory plant response rating (morningglory; [3]): 0
- Giant foxtail plant response rating (giant foxtail; [1]): 10
- Giant foxtail plant response rating (giant foxtail; [2]): 10
- Giant foxtail plant response rating (giant foxtail; [3]): 10
- Redroot pigweed plant response rating (pigweed; [1]): 6
- Redroot pigweed plant response rating (pigweed; [2]): 8
- Redroot pigweed plant response rating (pigweed; [3]): 8
- Soybean plant response rating (soybean; [1]): 0
- Soybean plant response rating (soybean; [2]): 0
- Soybean plant response rating (soybean; [3]): 0
- Blackgrass plant response rating (blackgrass; [1]): 9
- Blackgrass plant response rating (blackgrass; [2]): 10
- Blackgrass plant response rating (blackgrass; [3]): 10
- Wheat plant response rating (wheat; [1]): 0
- Wheat plant response rating (wheat; [2]): 0
- Wheat plant response rating (wheat; [3]): 0
- Cocklebur plant response rating (cocklebur; [1]): 0
- Cocklebur plant response rating (cocklebur; [2]): 0
- Cocklebur plant response rating (cocklebur; [3]): 0
- Velvetleaf plant response rating (velvetleaf; [1]): 0
- Velvetleaf plant response rating (velvetleaf; [2]): 0
- Velvetleaf plant response rating (velvetleaf; [3]): 0

SMILES: CC(C)N(C(=O)n1oc(=O)n(CCC(=O)N(C)C)c1=O)c1ccc(Cl)cc1 [Compound 719]
- Rape plant response rating (rape; [1]): 0
- Plant response rating, Rape (rape; [4]): 0
- Rape plant response rating (rape; [2]): 2
- Rape plant response rating (rape; [3]): 6
- Sugarbeets plant response rating (sugar beet; [1]): 4
- Plant response rating, Sugarbeets (sugar beet; [4]): 4
- Sugarbeets plant response rating (sugar beet; [2]): 6
- Sugarbeets plant response rating (sugar beet; [3]): 8
- B. signalgrass plant response rating (surinam grass; [1]): 3
- Plant response rating, B. signalgrass (surinam grass; [4]): 7
- B. signalgrass plant response rating (surinam grass; [2]): 7
- B. signalgrass plant response rating (surinam grass; [3]): 9
- Plant response rating, Crabgrass (crabgrass; [4]): 3
- Crabgrass plant response rating (crabgrass; [2]): 8
- Crabgrass plant response rating (crabgrass; [3]): 9
- Nutsedge plant response rating (purple nutsedge; [1]): 0
- Plant response rating, Nutsedge (purple nutsedge; [4]): 0
- Nutsedge plant response rating (purple nutsedge; [2]): 0
- Nutsedge plant response rating (purple nutsedge; [3]): 0
- Bedstraw plant response rating (bedstraw; [1]): 0
- Plant response rating, Bedstraw (bedstraw; [4]): 0
- Bedstraw plant response rating (bedstraw; [2]): 0
- Bedstraw plant response rating (bedstraw; [3]): 0
- Wild oats plant response rating (wild oat; [1]): 2
- Plant response rating, Wild oats (wild oat; [4]): 6
- Wild oats plant response rating (wild oat; [2]): 9
- Wild oats plant response rating (wild oat; [3]): 9
- Corn plant response rating (corn; [1]): 0
- Plant response rating, Corn (corn; [4]): 0
- Corn plant response rating (corn; [2]): 0
- Corn plant response rating (corn; [3]): 5
- Morningglory plant response rating (morningglory; [1]): 0
- Plant response rating, Morningglory (morningglory; [4]): 1
- Morningglory plant response rating (morningglory; [2]): 3
- Morningglory plant response rating (morningglory; [3]): 3
- Plant response rating, Giant foxtail (giant foxtail; [4]): 5
- Giant foxtail plant response rating (giant foxtail; [2]): 8
- Giant foxtail plant response rating (giant foxtail; [3]): 10
- Redroot pigweed plant response rating (pigweed; [1]): 7
- Plant response rating, Redroot pigweed (pigweed; [4]): 7
- Redroot pigweed plant response rating (pigweed; [2]): 10
- Redroot pigweed plant response rating (pigweed; [3]): 10
- Soybean plant response rating (soybean; [1]): 0
- Plant response rating, Soybean (soybean; [4]): 0
- Soybean plant response rating (soybean; [2]): 0
- Soybean plant response rating (soybean; [3]): 0
- Blackgrass plant response rating (blackgrass; [1]): 6
- Plant response rating, Blackgrass (blackgrass; [4]): 8
- Blackgrass plant response rating (blackgrass; [2]): 9
- Blackgrass plant response rating (blackgrass; [3]): 10
- Wheat plant response rating (wheat; [1]): 0
- Plant response rating, Wheat (wheat; [4]): 0
- Wheat plant response rating (wheat; [2]): 3
- Wheat plant response rating (wheat; [3]): 5
- Cocklebur plant response rating (cocklebur; [1]): 0
- Plant response rating, Cocklebur (cocklebur; [4]): 0
- Cocklebur plant response rating (cocklebur; [2]): 0
- Cocklebur plant response rating (cocklebur; [3]): 0
- Velvetleaf plant response rating (velvetleaf; [1]): 0
- Plant response rating, Velvetleaf (velvetleaf; [4]): 0
- Velvetleaf plant response rating (velvetleaf; [2]): 0
- Velvetleaf plant response rating (velvetleaf; [3]): 0
